Experimental data: US20240279288A1, “APPLICATION OF PLANT JAZ PROTEINS AND DERIVED POLYPEPTIDES IN PREVENTION AND TREATMENT OF HUMAN AND ANIMAL TUMORS” (ANYANG INSTITUTE OF SINO-COTTON INDUSTRY INNOVATION, priority 2021, published 2024)

Experiments:
[1] = test system: callus of cotton "CCRI 24"; assay: Growth of cotton callus on medium with JA synthesis inhibitor; conditions: DIECA 200, 400, 800 μM or ibuprofen 20, 40, 80 μM in callus induction medium; hypocotyl explants
Experimental: (§1) Explants from “CCRI 24” were cut to consistent length and placed under the same conditions for cultivation. After one month, the growth of callus was observed and photographed with a camera and microscope. Statistics on the weights of callus and measurement of JA content were performed.

[2] = test system: JA content of callus of cotton "CCRI 24"; assay: JA content in cotton callus (HPLC); conditions: DIECA 200, 400, 800 μM or ibuprofen 20, 40, 80 μM in callus induction medium
Experimental: as §1

[3] = test system: cell cycle-related genes of callus; assay: Fluorescence quantitative PCR of cell cycle-related genes in cotton callus; conditions: DIECA 200, 400, 800 μM or ibuprofen 20, 40, 80 μM in callus induction medium
Experimental: Identification at the RNA level: RNA was extracted using RNA extraction kit (RNAprep Pure Polysaccharide Polyphenol Plant Total RNA Extraction Kit (DP441), manufacturer: TIANGEN BIOTECH (BEIJING) CO., LTD.), and then cDNA was obtained using two-step reverse transcription kit (a third-generation premix for two-step de-genomization and reverse transcription, Cat. No.: MR05201). cDNA as a template was added into a 96-well plate, with addition of SYBR®Green I chimeric dye (an antibody dye quantitative PCR premix, Cat. No.: MQ10101) and gene primers for three-step qPCR amplification. Finally, the relative gene expression was calculated based on the Ct value.
The steps of RNA extraction, reverse transcription, and fluorescence quantitative PCR were the same as above, and the sequences of primers were as follows: […]
as §1

MCF7 cells = assay: Detection of GhJAZ1 protein entry into the nucleus, fluorescence microscope; assay type: cell-based, human; conditions: 0.5 μM
Description: In order to explore how GhJAZ1 enters cancer cells, we cloned the genes of most tumor surface receptors, including uPAR (NCBI database accession number of NM_002659.4), CCK1R (NP_000721.1), CCK2R (NP_001350481.1), HER2 (NP_004439.2), GRPR (NP_005305.1), MUC1 (NP_001358649.1), VEGFR1 (NP_002010.2), Insulin receptor (NM_000208.4), NTR (XM_011528827.2), PSMA (XM_017017432.1), TFR1 (NM_001128148.3), TFR2 (NM_003227.4), PEPT1 (NM_005073.4), APN (NM_001150.3). The receptor proteins that interact with GhJAZ1 were then screened by yeast two hybrid (the steps of the experiment as Example 3). […] We detected the interaction of GhJAZ1 with uPA (as the ligand of uPAR, NCBI database accession number of NP_002649.2) and uPAR by yeast two hybrid (the steps of the experiment as Example 3). […] GhJAZ1+RFP (the amino acid sequence set forth in SEQ ID No. 81, corresponding encoding gene sequence set forth in SEQ ID No. 82) was ligated to pET-30a (+) vector (YouBio, Cat. No.: VT1212) between NdeI and HindIII, and GhJAZ1+RFP protein with red fluorescence was prokaryotically expressed and purified (the step of method as step 2 in Example 4) (A in FIG. 11), and then MCF7 cells were treated with GhJAZ1+RFP protein and observed by a fluorescence microscope.

Compound | growth of callus of cotton [1] | JA content of callus [2] | cell cycle-related genes of callus [3] | entry into the nucleus of MCF7 cells (red fluorescence merged with blue nuclear fluorescence) (MCF7 cells)
CCN(CC)C(=S)[S-].[Na+] [DIECA] | significantly inhibit | significantly decreased | marked changes | –
CC(C)Cc1ccc(C(C)C(=O)O)cc1 (stereo not shown) [ibuprofen] | significantly inhibit | significantly decreased | marked changes | –
GhJAZ1+RFP: GhJAZ1 fused with RFP, red fluorescence, amino acid sequence SEQ ID No. 81 | – | – | – | entered the nucleus
